pKi: −log10 of the molar value.
Target: Neuraminidase (Influenza A virus (A/Puerto Rico/8/1934(H1N1)), UniProt P03468)
Sequence (P03468 whole entry): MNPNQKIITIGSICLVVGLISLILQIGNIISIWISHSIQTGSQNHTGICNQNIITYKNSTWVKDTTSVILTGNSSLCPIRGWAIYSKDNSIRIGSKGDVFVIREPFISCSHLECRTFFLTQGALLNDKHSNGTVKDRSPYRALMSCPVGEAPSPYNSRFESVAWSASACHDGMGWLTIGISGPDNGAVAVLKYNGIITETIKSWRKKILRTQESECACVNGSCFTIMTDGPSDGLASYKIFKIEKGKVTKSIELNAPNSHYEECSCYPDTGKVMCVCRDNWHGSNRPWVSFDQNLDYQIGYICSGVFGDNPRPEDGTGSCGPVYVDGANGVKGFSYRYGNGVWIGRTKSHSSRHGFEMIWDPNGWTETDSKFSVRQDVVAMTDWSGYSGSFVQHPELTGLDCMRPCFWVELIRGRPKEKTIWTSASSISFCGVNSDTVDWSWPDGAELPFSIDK
Description: inhibition of Influenza A Sialidase

CC(=O)NC1C(N)C=C(C(=O)O)OC1[C@H](O)[C@H](O)CO (stereo partly specified)
pKi: 7.40
